Patent US20250302721A1, “ANTI-AGING EYE CREAM” (L'OREAL, priority 2024, published 2025)

Experiments:
[1] = system: Full-thickness reconstructed skin (T-Skin, Episkin); test: sGAG release in full-thickness reconstructed skin (sulfated glycosaminoglycan assay kit); format: cell-based; settings: PX 0.02% and 0.06% in medium, Day 11 through Day 15, medium supernatant, n=3, FIG. 7
Method: Full-thickness reconstructed skin (T-Skin, Episkin) was treated systemically with hydroxypropyl tetrahydropyrantriol (PX, 0.02% and 0.06%) based on the T-skin evaluation test. Tissues are received on medium at day 11 and stored at 37C (95% humidity and 5% CO2) until the end of treatments at […]. The tissue receive medium and medium+hydroxypropyl tetrahydropyrantriol starting from Day 11 through Day 15 (n=3). At Day 15, the medium supernatant was collected to be measured with the sulfated glycosaminoglycan assay kit (ab289846, Abcam). For analysis, sGAG release of the supernatant was quantified based on vendor protocol.

[2] = system: Normal adult human epidermal keratinocytes (NHEK-Ad); test: keratinocyte proliferation (Ki67 vs DAPI staining); format: cell-based; settings: 48 hours, FIG. 9 and FIG. 10
Method: Normal adult human epidermal keratinocytes (NHEK-Ad, Cat #00192627, Lonza, Switzerland) were maintained in basal growth medium (KGM Gold keratinocyte Growth Medium Bulletkit, Cat #00192060) until the initiation of the proliferation experiment. The keratinocytes were seeded at a concentration of 1×10^3/24 well and allowed to equilibrate overnight (n=3/group). The cell culture medium was switched with fresh growth containing different concentrations of hydroxypropyl tetrahydropyrantriol (0.005%, 0.017%, and 0.05%), NAM (0.0012%, 0.004%, and 0.012%) alone and combination of hydroxypropyl tetrahydropyrantriol+niacinamide (PX/NAM). The cells were incubated for 48 hours and the keratinocytes were stained against KI67 primary antibody (Anti-Ki67 antibody, Cat #ab15580, Abcam) and goat anti-rabbit IgG Alexa Fluor®488 secondary antibody (Cat #150077, Abcam). The Ki67 and DAPI fluorescent signals were captured using a fluorescent microscope (DMi8, Leica). The Ki67 expression was quantified against total cell nucleus staining (DAPI staining solution, ab228549, Abcam) in order to calculate the number of proliferating cells vs. total number of cells.

SMILES | sGAG release [1] | skin cell proliferation (Ki67 vs total nuclei) ([2]; 0.004% niacinamide) | skin cell proliferation (Ki67 vs total nuclei) ([2]; 0.012% niacinamide)
CC(O)C[C@@H]1OC[C@@H](O)[C@H](O)[C@H]1O (stereo partly drawn) [hydroxypropyl tetrahydropyrantriol, C-beta-D-xylopyranoside-2-hydroxypropane] | increase sGAG release |  | 
NC(=O)c1cccnc1 [niacinamide] |  | significantly increase proliferation | significantly increase proliferation
